In brackets after ≈: the same amount, converted by molar mass. Read-outs that look alike come from different tables or passages of the source. Bridge positions count the residues as written; N and C are the ends. Peptide text beside a SMILES is read from it.
Tests used:
S. aureus (ATCC 6538) = test: microbe, parasite or virus in culture; type: cell-based, Staphylococcus aureus; conditions: planktonic S. aureus ATCC 6538; for MIC: 37 °C, nine repeats of three independent experiments, read-out: MIC; for MBC: lowest concentration killing 99.9% of inoculum, read-out: MBC
Excerpt: (§1) The minimum inhibitory concentration (MIC) is the minimum concentration of an antimicrobial agent that prevents the visible growth of a bacterium or bacteria. The MIC is an important piece of data for research on new antimicrobial agents and helps in the effective selection of antibiotics to improve the success of treatment. The minimum bactericidal concentration (MBC) is defined as the lowest antibiotic concentration that kills 99.9% of the inoculum. This study mainly contained eight different microorganisms, which were Staphylococcus aureus (ATCC 6538), methicillin-resistant Staphylococcus aureus (NCTC 12493), Enterococcus faecalis (NCTC 12697), Escherichia coli (ATCC 8739), Klebsiella pneumoniae (ATCC 43816), Pseudomonas aeruginosa (ATCC CRM 9027), Acinetobacter baumannii (BAA 747), and Candida albicans (ATCC 10231). The bacteria were incubated in the compatible medium at 37 °C overnight.

MRSA (NCTC 12493) = test: microbe, parasite or virus in culture; type: cell-based, methicillin-resistant Staphylococcus aureus; conditions: planktonic MRSA NCTC 12493; for MIC: 37 °C, nine repeats of three independent experiments; for MBC: lowest concentration killing 99.9% of inoculum
Excerpt: as §1

E. faecalis (NCTC 12697) = test: microbe, parasite or virus in culture; type: cell-based, Enterococcus faecalis; conditions: planktonic E. faecalis NCTC 12697; for MIC: 37 °C, nine repeats of three independent experiments; for MBC: lowest concentration killing 99.9% of inoculum
Excerpt: as §1

E. coli (ATCC 8739) = test: microbe, parasite or virus in culture; type: cell-based, Escherichia coli; conditions: planktonic E. coli ATCC 8739; for MIC: 37 °C, nine repeats of three independent experiments, read-out: MIC; for MBC: lowest concentration killing 99.9% of inoculum, read-out: MBC
Excerpt: as §1

[1] = tested on: K. pneumoniae (ATCC 43816); test: microbe, parasite or virus in culture; type: cell-based, Klebsiella pneumoniae; conditions: planktonic K. pneumoniae ATCC 43816; for MIC: 37 °C, nine repeats of three independent experiments; for MBC: lowest concentration killing 99.9% of inoculum
Excerpt: as §1

[2] = tested on: S. aureus ATCC 6538 biofilm; type: cell-based, Staphylococcus aureus; conditions: for MBIC: lowest concentration inhibiting at least 90% of biofilm formation; for MBEC: minimum concentration eradicating at least 99% of the biofilm
Excerpt: (§2) The minimum bactericidal concentration (MBC) is defined as the lowest antibiotic concentration that kills 99.9% of the inoculum. The minimum biofilm inhibitory concentration (MBIC) is the lowest concentration that inhibits at least 90% of the formation of biofilm. The minimum biofilm eradication concentration (MBEC) is the minimum concentration that can eradicate at least 99% of the biofilm. In addition to the eight microorganisms described previously, this experiment was also applied to P. aeruginosa (ATCC 27853, ATCC BAA-2108, P. aeruginosa 01, P. aeruginosa 14).

MRSA NCTC 12493 biofilm [3] = type: cell-based, methicillin-resistant Staphylococcus aureus; conditions: for MBIC: lowest concentration inhibiting at least 90% of biofilm formation; for MBEC: minimum concentration eradicating at least 99% of the biofilm
Excerpt: as §2

[4] = tested on: K. pneumoniae ATCC 43816 biofilm; type: cell-based, Klebsiella pneumoniae; conditions: for MBIC: lowest concentration inhibiting at least 90% of biofilm formation; for MBEC: minimum concentration eradicating at least 99% of the biofilm
Excerpt: as §2

[5] = tested on: P. aeruginosa ATCC CRM 9027 biofilm; test: Peptide and antibiotic co-administration MBIC checkerboard assay; type: cell-based, Pseudomonas aeruginosa; conditions: 24 h, crystal violet, 595 nm
Excerpt: The plate was then carefully cleaned under running water.

[6] = tested on: A. baumannii BAA 747 biofilm; conditions: checkerboard MBIC, 24 h, crystal violet, 595 nm
Method: (§3) Parameter fractional inhibitory concentration indices (FICIs) were used to evaluate the synergistic effect, and the value of that was calculated as follows:FICI = FICa + FICb FICa = MIC combination peptide/MIC single peptide FICb = MIC combination antibiotic/MIC single antibiotic
(§4) The FICI value was interpreted as “synergy” (FICI ≤ 0.5), “no interaction” (0.5 < FICI ≤ 4), or “antagonism” (FICI > 4).
(§5) The bacteria were also cultured, subcultured, diluted, and incubated as the methods of the MBIC assay. All experimental groups were included in a peptide and antibiotic co-administration of MIC assay. To ensure that the mixture was evenly dispersed, the plate was placed in a shaker and incubated for 24 h at 37 and 220× g. The plate was twice rinsed with 200 µL of PBS solution following a 24 h incubation period with peptides and diluted bacterial cultures. Each well received a separate addition of 100 μL of methanol and 0.1% crystal violet solution (Sigma-Aldrich, London, UK), which was left there for 20 min. The plate was then carefully cleaned under running water. Following the drying process, each well received 160 µL of acetic acid (33% in dd water, Sigma-Aldrich, UK). Additionally, the absorbance was measured at λ = 595 nm using the Synergy HT plate reader. FICI values were calculated and identified for our peptide and antibiotic co-administration of MIC assay.

[7] = tested on: K. pneumoniae ATCC 43816 biofilm; conditions: checkerboard MBIC, 24 h, crystal violet, 595 nm
Method: as §3, §4, §5

MRSA NCTC 12493 biofilm [8] = conditions: checkerboard MBIC, 24 h, crystal violet, 595 nm
Method: as §3, §4, §5

P. aeruginosa 01 biofilm = conditions: checkerboard MBIC, 24 h, crystal violet, 595 nm
Method: as §3, §4, §5

P. aeruginosa 14 biofilm = conditions: checkerboard MBIC, 24 h, crystal violet, 595 nm
Method: as §3, §4, §5

[9] = tested on: P. aeruginosa ATCC 27853 biofilm; conditions: checkerboard MBIC, 24 h, crystal violet, 595 nm
Method: as §3, §4, §5

[10] = tested on: P. aeruginosa ATCC BAA-2108 biofilm; conditions: checkerboard MBIC, 24 h, crystal violet, 595 nm
Method: as §3, §4, §5

[11] = tested on: S. aureus ATCC 6538 biofilm; conditions: checkerboard MBIC, 24 h, crystal violet, 595 nm
Method: as §3, §4, §5

horse red blood cells = horse red blood cells in PBS, 37 °C, 2 h, absorbance 570 nm; positive control 0.1% Triton
Method: The pure peptide was dissolved in PBS and then two-fold diluted to obtain a series of concentrations: 512, 256, 128, 64, 32, 16, 8, 4, and 2 μM. A positive control (0.1% Triton) and blank control (PBS) were used. Two millilitres of fresh horse red blood cells were washed in PBS until the supernatant became colourless and clear, and the mixture was then thoroughly mixed. Each mixture contained 100 μL of peptide solution or controls and 100 μL of horse red blood cells, which were then incubated at 37 °C for 2 h and centrifuged at 930× g for 10 min. Subsequently, 100 μL of supernatant from each tube was transferred into a 96-well plate, and the plate reader measured the absorbance at a wavelength of 570 nm. The haemolysis rate was calculated using the following formula:Percentage Haemolysis= (ASample − ABlank)/(APositive − ABlank) × 100%

[12] = peptide combined with gentamicin

| SMILES | MIC (S. aureus (ATCC 6538)) | MBC (S. aureus (ATCC 6538)) | MIC (MRSA (NCTC 12493)) | MBC (MRSA (NCTC 12493)) | MIC (E. faecalis (NCTC 12697)) | MBC (E. faecalis (NCTC 12697)) | MIC (E. coli (ATCC 8739)) | MBC (E. coli (ATCC 8739)) | MIC [1] | MBC [1] | MBIC [2] | MBEC [2] | MBIC (MRSA NCTC 12493 biofilm [3]) | MBEC (MRSA NCTC 12493 biofilm [3]) | MBIC [4] | MBEC [4] | Biofilm FICI ([5]; peptide combined with cefepime) | Biofilm FICI [5, 12] | Biofilm FICI ([6]; peptide combined with cefepime) | Biofilm FICI [6, 12] | other results |
| --- | --- | --- | --- | --- | --- | --- | --- | --- | --- | --- | --- | --- | --- | --- | --- | --- | --- | --- | --- | --- | --- |
| CC[C@H](C)[C@H](NC(=O)[C@H](CCCCN)NC(=O)[C@H](CCCCN)NC(=O)CNC(=O)[C@H](C)NC(=O)CNC(=O)[C@H](CC(C)C)NC(=O)[C@@H](NC(=O)CNC(=O)[C@H](CO)NC(=O)[C@H](CC(C)C)NC(=O)[C@H](CC(C)C)NC(=O)CN)C(C)C)C(=O)N[C@H](C(=O)N[C@H]1CSSC[C@@H](C(=O)O)NC(=O)[C@H](CCCNC(=N)N)NC(=O)CNC(=O)[C@H](CO)NC(=O)[C@H](CC(C)C)NC(=O)CNC1=O)C(C)C [Nigrosin-6VL] (H-GLLSGVLGAGKKIVCGLSGRC-OH; disulfide 15-21) | 16 µM (≈ 31.8 µg/mL) | 32 µM (≈ 63.6 µg/mL) | > 128 µM | > 128 µM | > 128 µM | > 128 µM | 64 µM (≈ 127 µg/mL) | 128 µM (≈ 254 µg/mL) | 128 µM (≈ 254 µg/mL) | 128 µM (≈ 254 µg/mL) | 128/>128 µM | 128/>128 µM | >128/>128 µM | >128/>128 µM | >128/>128 µM | >128/>128 µM | 0.3125 | 0.5 | 0.5 | 0.5 | Biofilm FICI ([7]; peptide combined with cefepime): 1.25; Biofilm FICI [7, 12]: 0.5; Biofilm FICI (MRSA NCTC 12493 biofilm [8]; peptide combined with cefepime): 0.75; Biofilm FICI (MRSA NCTC 12493 biofilm [8]; [12]): 0.375; Biofilm FICI (P. aeruginosa 01 biofilm; peptide combined with cefepime): 0.625; Biofilm FICI (P. aeruginosa 01 biofilm; [12]): 0.625; Biofilm FICI (P. aeruginosa 14 biofilm; peptide combined with cefepime): 0.25; Biofilm FICI (P. aeruginosa 14 biofilm; [12]): 0.5; Biofilm FICI ([9]; peptide combined with cefepime): 1; Biofilm FICI [9, 12]: 0.25; Biofilm FICI ([10]; peptide combined with cefepime): 0.625; Biofilm FICI [10, 12]: 1; Biofilm FICI ([11]; peptide combined with cefepime): 1; Biofilm FICI [11, 12]: 0.5; HC10 (horse red blood cells): >256 µM |
| CC[C@H](C)[C@H](NC(=O)[C@H](CCCCN)NC(=O)[C@H](CCCCN)NC(=O)CNC(=O)[C@H](C)NC(=O)[C@H](CCCNC(=N)N)NC(=O)[C@H](CC(C)C)NC(=O)[C@@H](NC(=O)[C@H](C)NC(=O)[C@H](CCCNC(=N)N)NC(=O)[C@H](CC(C)C)NC(=O)[C@H](CC(C)C)NC(=O)CN)C(C)C)C(=O)N[C@H](C(=O)N[C@H]1CSSC[C@@H](C(=O)O)NC(=O)[C@H](CCCNC(=N)N)NC(=O)CNC(=O)[C@H](CO)NC(=O)[C@H](CC(C)C)NC(=O)CNC1=O)C(C)C [Peptide 2170-2R] (H-GLLRAVLRAGKKIVCGLSGRC-OH; disulfide 15-21) | 4 µM (≈ 8.67 µg/mL) | 8 µM (≈ 17.3 µg/mL) | 16 µM (≈ 34.7 µg/mL) | 16 µM (≈ 34.7 µg/mL) | 128 µM (≈ 278 µg/mL) | 128 µM (≈ 278 µg/mL) | 4 µM (≈ 8.67 µg/mL) | 8 µM (≈ 17.3 µg/mL) | 32 µM (≈ 69.4 µg/mL) | 32 µM (≈ 69.4 µg/mL) | 4 µM | 16 µM | 4 µM | 16 µM | 32 µM | > 128 µM | 0.5 | 1 | 0.625 | 0.75 | Biofilm FICI ([7]; peptide combined with cefepime): 3; Biofilm FICI [7, 12]: 1.125; Biofilm FICI (MRSA NCTC 12493 biofilm [8]; peptide combined with cefepime): 0.5; Biofilm FICI (MRSA NCTC 12493 biofilm [8]; [12]): 1.125; Biofilm FICI (P. aeruginosa 01 biofilm; peptide combined with cefepime): 0.5; Biofilm FICI (P. aeruginosa 01 biofilm; [12]): 1; Biofilm FICI (P. aeruginosa 14 biofilm; peptide combined with cefepime): 0.375; Biofilm FICI (P. aeruginosa 14 biofilm; [12]): 1; Biofilm FICI ([9]; peptide combined with cefepime): 0.5; Biofilm FICI [9, 12]: 0.25; Biofilm FICI ([10]; peptide combined with cefepime): 1; Biofilm FICI [10, 12]: >3; Biofilm FICI ([11]; peptide combined with cefepime): 1; Biofilm FICI [11, 12]: 0.25; HC10 (horse red blood cells): >256 µM |

— PMC11274128, “Modification and Synergistic Studies of a Novel Frog Antimicrobial Peptide against Pseudomonas aeruginosa Biofilms” (Antibiotics, 2024)
